Test systems include 786-0 renal; COLO 205 colon; EKVX NSCLC; HOP-62 NSCLC; K-562 leukemia; MDA-MB-231 breast; NCI-H23 lung; PC-3 prostate; TK-10 renal; UACC-62 melanoma.
Holding throughout (assay): DTP human tumour cell line panel, 48 h

Each structure is given as a SMILES string.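 How tested: cells in 96-well plates exposed to compound for 48 hours at five concentrations. Abbreviation: GI50, concentration required for 50% inhibition of growth. At the TGI there is no net growth.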

By TGI is commonly meant the concentration at which net growth stops. The term GI50 denotes the concentration that inhibits growth by half.

For `COC(=O)c1n[nH]c(C)c1N=NN(C)CCC#N`, the TGI in the experiment on 786-0 renal stood at 48.4 µM; in the experiment with COLO 205 colon, 26.9 µM; in the experiment on EKVX NSCLC it was 29.2 µM; in the experiment with HOP-62 NSCLC, 37 µM; in the experiment with K-562 leukemia, 60 µM; in the experiment with MDA-MB-231 breast it was 62.8 µM. Also, the TGI in the experiment with NCI-H23 lung was found to be 36.5 µM; in the experiment on PC-3 prostate it was 74.7 µM; with TK-10 renal, 62.4 µM; in the experiment with UACC-62 melanoma, 35.2 µM.

In the case of `CC(C)(Br)C(=O)N1CCN(C(c2ccccc2)c2ccccc2)CC1`, the TGI with 786-0 renal, in the experiment on COLO 205 colon, in the experiment on EKVX NSCLC, with HOP-62 NSCLC, with K-562 leukemia and in the experiment on MDA-MB-231 breast was above 100 µM each time. Further, the TGI with NCI-H23 lung, with PC-3 prostate, in the experiment on TK-10 renal and in the experiment on UACC-62 melanoma was above 100 µM each time.

As to `CC(C)c1[nH]nc(C(N)=O)c1N=NN(C)C`, the TGI in the experiment with 786-0 renal, in the experiment on COLO 205 colon, in the experiment on EKVX NSCLC, in the experiment on HOP-62 NSCLC, with K-562 leukemia and in the experiment on MDA-MB-231 breast was above 100 µM throughout. Besides, the TGI in the experiment on NCI-H23 lung, in the experiment with PC-3 prostate, in the experiment on TK-10 renal and in the experiment with UACC-62 melanoma was above 100 µM in each case.

Turning to `CC(N)C(Cc1ccc(Cl)cc1)c1ccc(Cl)cc1` (stereo not given), the GI50 with 786-0 renal was 10.2 µM; with COLO 205 colon, 1.89 µM; in the experiment with EKVX NSCLC it was 9.22 µM; in the experiment on HOP-62 NSCLC, 13.1 µM; in the experiment with K-562 leukemia, 3.05 µM; in the experiment on MDA-MB-231 breast it was 4.26 µM. For the same molecule, the GI50 with NCI-H23 lung was 13.4 µM; in the experiment on PC-3 prostate, 12.8 µM; with TK-10 renal it was 12.6 µM; with UACC-62 melanoma, 6.01 µM. Moreover, the TGI with 786-0 renal was found to be 24.3 µM; in the experiment on COLO 205 colon it was 3.97 µM; in the experiment on EKVX NSCLC it was 22.4 µM; in the experiment on HOP-62 NSCLC it was 28.4 µM; with K-562 leukemia, 10.8 µM; with MDA-MB-231 breast, 16.8 µM. The TGI with NCI-H23 lung is 27.8 µM; in the experiment on PC-3 prostate, 26.3 µM; in the experiment with TK-10 renal it was 26.2 µM; with UACC-62 melanoma, 19.6 µM.

In the case of `CCN(Cc1ccc(C)cc1)c1ccc(CO)c(Cl)c1`, the GI50 in the experiment with 786-0 renal is 4.32 µM; in the experiment with COLO 205 colon it was 0.996 µM; in the experiment on EKVX NSCLC, 12.9 µM; in the experiment on HOP-62 NSCLC it was 0.779 µM; in the experiment with K-562 leukemia, 2 µM; in the experiment on MDA-MB-231 breast it was 12.5 µM. The GI50 with NCI-H23 lung is 9.95 µM; in the experiment with PC-3 prostate it was 13.3 µM; in the experiment with TK-10 renal, 0.0795 µM; in the experiment with UACC-62 melanoma it was 0.0933 µM. For the same molecule, the TGI is 19.3 µM in the experiment with 786-0 renal; 4.05 µM in the experiment with COLO 205 colon; 29.4 µM with EKVX NSCLC; 16.4 µM in the experiment on HOP-62 NSCLC; above 50.5 µM in the experiment on K-562 leukemia; 29.6 µM in the experiment on MDA-MB-231 breast. The TGI in the experiment with NCI-H23 lung is 25.3 µM; in the experiment on PC-3 prostate, 29.5 µM; in the experiment with TK-10 renal, 0.309 µM; in the experiment with UACC-62 melanoma, 0.684 µM.

With `O=C1CSCc2sccc21`, the TGI in the experiment with 786-0 renal, with COLO 205 colon, in the experiment with EKVX NSCLC, in the experiment on HOP-62 NSCLC, in the experiment with K-562 leukemia and in the experiment on MDA-MB-231 breast was above 100 µM in each case. Besides, the TGI in the experiment on NCI-H23 lung, in the experiment with PC-3 prostate, with TK-10 renal and in the experiment on UACC-62 melanoma was above 100 µM in each case.

`Cc1cc2nc3c4cc(O)ccc4n(CCN(C)C)c3nc2cc1C`: the GI50 with 786-0 renal is 0.929 µM; in the experiment on COLO 205 colon, 0.698 µM; in the experiment on EKVX NSCLC it was 2.25 µM; in the experiment with HOP-62 NSCLC, 0.676 µM; in the experiment on K-562 leukemia, 0.368 µM; in the experiment with MDA-MB-231 breast, 0.898 µM. The GI50 in the experiment with NCI-H23 lung was 0.833 µM; with PC-3 prostate, 0.578 µM; in the experiment on TK-10 renal it was 2.21 µM; in the experiment with UACC-62 melanoma, 0.729 µM. Besides, the TGI was 2.42 µM in the experiment on 786-0 renal; 3.99 µM in the experiment on COLO 205 colon; 9.96 µM with EKVX NSCLC; 12.4 µM with HOP-62 NSCLC; above 100 µM in the experiment on K-562 leukemia; 5.71 µM in the experiment with MDA-MB-231 breast. For the same molecule, the TGI is 3.35 µM in the experiment with NCI-H23 lung, 2.3 µM with PC-3 prostate, 6.13 µM in the experiment on TK-10 renal and 2.6 µM in the experiment on UACC-62 melanoma.

As to `COc1ccc2c(c1OC)C[C@@H]1c3c(cc4c(c3-2)OCO4)CCN1C`, the TGI is 63.9 µM with 786-0 renal; 40.3 µM in the experiment with COLO 205 colon; above 100 µM in the experiment on EKVX NSCLC; above 100 µM in the experiment with HOP-62 NSCLC; 56.6 µM in the experiment on K-562 leukemia; above 100 µM in the experiment with MDA-MB-231 breast. Further, the TGI in the experiment on NCI-H23 lung is above 100 µM; in the experiment on PC-3 prostate it was 89.2 µM; in the experiment on TK-10 renal, 74.6 µM; with UACC-62 melanoma it was 43.8 µM.

As to `CC(=O)O[C@H]1C(=O)[C@@]2(C)C(C(OC(=O)c3ccccc3)[C@]3(O)C[C@H](OC(=O)C(OC(=O)CCCC(=O)NCCCN(C)C)C(NC(=O)c4ccccc4)c4ccccc4)C(C)=C1C3(C)C)C1(OC(C)=O)COC1C[C@@H]2O` (stereo not given in full), the TGI was 11 µM in the experiment with 786-0 renal; 0.0147 µM in the experiment with COLO 205 colon; above 100 µM in the experiment on EKVX NSCLC; 11.4 µM with HOP-62 NSCLC; 45.4 µM in the experiment on K-562 leukemia; 13.8 µM in the experiment on MDA-MB-231 breast. Moreover, the TGI in the experiment on NCI-H23 lung is 18.2 µM; in the experiment on PC-3 prostate, 43 µM; in the experiment with TK-10 renal, 33.3 µM; in the experiment on UACC-62 melanoma, 7 µM.

For the molecule `CC(C)(CN1CCCCC1)C(=O)/C=C/c1ccc(/C=C/C(=O)C(C)(C)CN2CCCCC2)cc1`, the TGI was found to be 2.79 µM with 786-0 renal; 0.418 µM in the experiment with COLO 205 colon; 4.21 µM in the experiment with EKVX NSCLC; 2.19 µM in the experiment on HOP-62 NSCLC; 0.375 µM in the experiment with K-562 leukemia; 0.476 µM in the experiment with MDA-MB-231 breast. Further, the TGI with NCI-H23 lung was 2.04 µM; with PC-3 prostate, 0.82 µM; in the experiment with TK-10 renal it was 2.31 µM; in the experiment on UACC-62 melanoma, 2.35 µM.

As for `COc1ccc(/C=C(/C#N)C(N)=O)c(OC)c1`, the TGI with 786-0 renal, in the experiment on COLO 205 colon, with EKVX NSCLC, in the experiment on HOP-62 NSCLC, with K-562 leukemia and in the experiment with MDA-MB-231 breast was above 100 µM in each case. Also, the TGI in the experiment with NCI-H23 lung, in the experiment on PC-3 prostate, with TK-10 renal and with UACC-62 melanoma was above 100 µM throughout.

The values are drawn from PubChem BioAssay (NCI).
